# Measurements: the NIST ThermoML archive (doi:10.1016/j.tca.2011.12.010)
# Values joined by “and” are separate entries in the source; they are usually repeats but may differ in a detail not shown here. Equal entries are not always repeated. Numbers after ± are expanded uncertainties.
# Assay: molar heat capacity at constant pressure
# Details: 101.33 kPa, Small sample (50 mg) DSC
smiles,measurement,setting,value
O=[N+]([O-])[O-].O=[N+]([O-])[O-].O=[N+]([O-])[O-].O=[N+]([O-])[O-].[K+].[K+].[Mg+2] [bis-potassium magnesium nitrate],molar heat capacity at constant pressure,"382 K, Crystal 2",376.3 ± 7.5 J/K/mol
same,molar heat capacity at constant pressure,"383 K, Crystal 2",377.7 ± 7.6 J/K/mol
same,molar heat capacity at constant pressure,"384 K, Crystal 2",379.1 ± 7.6 J/K/mol
same,molar heat capacity at constant pressure,"385 K, Crystal 2",380.8 ± 7.6 J/K/mol
same,molar heat capacity at constant pressure,"386 K, Crystal 2",381.9 ± 7.6 J/K/mol
same,molar heat capacity at constant pressure,"387 K, Crystal 2",382.2 ± 7.6 J/K/mol
same,molar heat capacity at constant pressure,"388 K, Crystal 2",382.6 ± 7.7 J/K/mol
same,molar heat capacity at constant pressure,"389 K, Crystal 2",385 ± 7.7 J/K/mol
same,molar heat capacity at constant pressure,"390 K, Crystal 2",386.8 ± 7.7 J/K/mol
same,molar heat capacity at constant pressure,"391 K, Crystal 2",388.2 ± 7.8 J/K/mol
same,molar heat capacity at constant pressure,"392 K, Crystal 2",389.6 ± 7.8 J/K/mol
same,molar heat capacity at constant pressure,"393 K, Crystal 2",391.3 ± 7.8 J/K/mol
same,molar heat capacity at constant pressure,"394 K, Crystal 2",393.8 ± 7.9 J/K/mol
same,molar heat capacity at constant pressure,"395 K, Crystal 2",395.2 ± 7.9 J/K/mol
same,molar heat capacity at constant pressure,"396 K, Crystal 2",397.6 ± 8 J/K/mol
same,molar heat capacity at constant pressure,"397 K, Crystal 2",399.7 ± 8 J/K/mol
same,molar heat capacity at constant pressure,"398 K, Crystal 2",401.5 ± 8 J/K/mol
same,molar heat capacity at constant pressure,"399 K, Crystal 2",403.2 ± 8.1 J/K/mol
same,molar heat capacity at constant pressure,"400 K, Crystal 2",405.3 ± 8.1 J/K/mol
same,molar heat capacity at constant pressure,"401 K, Crystal 2",409.5 ± 8.2 J/K/mol
same,molar heat capacity at constant pressure,"402 K, Crystal 2",412.7 ± 8.3 J/K/mol
same,molar heat capacity at constant pressure,"403 K, Crystal 2",422.1 ± 8.5 J/K/mol and 428.4 ± 8.6 J/K/mol
same,molar heat capacity at constant pressure,"403.15 K, Crystal 2",428.4 ± 8.6 J/K/mol
same,molar heat capacity at constant pressure,"404 K, Crystal 2",811 ± 19 J/K/mol
same,molar heat capacity at constant pressure,"405 K, Crystal 1",1042.3 ± 21 J/K/mol
same,molar heat capacity at constant pressure,"406 K, Crystal 1",900.2 ± 18 J/K/mol
same,molar heat capacity at constant pressure,"407 K, Crystal 1",714.4 ± 15 J/K/mol
same,molar heat capacity at constant pressure,"408 K, Crystal 1",611.1 ± 12 J/K/mol
same,molar heat capacity at constant pressure,"409 K, Crystal 1",562.5 ± 11 J/K/mol
same,molar heat capacity at constant pressure,"410 K, Crystal 1",518 ± 10 J/K/mol
same,molar heat capacity at constant pressure,"411 K, Crystal 1",464.1 ± 9.3 J/K/mol
same,molar heat capacity at constant pressure,"412 K, Crystal 1",426.3 ± 8.5 J/K/mol
same,molar heat capacity at constant pressure,"413 K, Crystal 1",409.2 ± 8.2 J/K/mol
same,molar heat capacity at constant pressure,"414 K, Crystal 1",403.6 ± 8.1 J/K/mol
same,molar heat capacity at constant pressure,"415 K, Crystal 1",402.9 ± 8.1 J/K/mol
same,molar heat capacity at constant pressure,"415.15 K, Crystal 1",402.9 ± 8.1 J/K/mol
same,molar heat capacity at constant pressure,"416 K, Crystal 1",403.2 ± 8.1 J/K/mol
same,molar heat capacity at constant pressure,"417 K, Crystal 1",403.6 ± 8.1 J/K/mol
same,molar heat capacity at constant pressure,"418 K, Crystal 1",404.3 ± 8.1 J/K/mol
same,molar heat capacity at constant pressure,"419 K, Crystal 1",405.3 ± 8.1 J/K/mol
same,molar heat capacity at constant pressure,"420 K, Crystal 1",406.4 ± 8.1 J/K/mol
same,molar heat capacity at constant pressure,"421 K, Crystal 1",409.2 ± 8.2 J/K/mol
same,molar heat capacity at constant pressure,"422 K, Crystal 1",408.5 ± 8.2 J/K/mol
same,molar heat capacity at constant pressure,"423 K, Crystal 1",407.8 ± 8.2 J/K/mol
same,molar heat capacity at constant pressure,"424 K, Crystal 1",407.3 ± 8.1 J/K/mol
same,molar heat capacity at constant pressure,"425 K, Crystal 1",408.5 ± 8.2 J/K/mol
same,molar heat capacity at constant pressure,"426 K, Crystal 1",406.3 ± 8.1 J/K/mol
same,molar heat capacity at constant pressure,"427 K, Crystal 1",405.9 ± 8.1 J/K/mol
same,molar heat capacity at constant pressure,"428 K, Crystal 1",404.1 ± 8.1 J/K/mol
same,molar heat capacity at constant pressure,"429 K, Crystal 1",403.2 ± 8.1 J/K/mol
same,molar heat capacity at constant pressure,"430 K, Crystal 1",405 ± 8.1 J/K/mol and 410 ± 8.2 J/K/mol
same,molar heat capacity at constant pressure,"431 K, Crystal 1",407.1 ± 8.1 J/K/mol
same,molar heat capacity at constant pressure,"432 K, Crystal 1",409.5 ± 8.2 J/K/mol
same,molar heat capacity at constant pressure,"433 K, Crystal 1",412.7 ± 8.3 J/K/mol
same,molar heat capacity at constant pressure,"434 K, Crystal 1",415.1 ± 8.3 J/K/mol
same,molar heat capacity at constant pressure,"435 K, Crystal 1",417.2 ± 8.3 J/K/mol
same,molar heat capacity at constant pressure,"436 K, Crystal 1",419 ± 8.4 J/K/mol
same,molar heat capacity at constant pressure,"437 K, Crystal 1",417.6 ± 8.4 J/K/mol
same,molar heat capacity at constant pressure,"438 K, Crystal 1",420 ± 8.4 J/K/mol
same,molar heat capacity at constant pressure,"439 K, Crystal 1",421.4 ± 8.4 J/K/mol
same,molar heat capacity at constant pressure,"440 K, Crystal 1",425.3 ± 8.5 J/K/mol
same,molar heat capacity at constant pressure,"441 K, Crystal 1",427.7 ± 8.6 J/K/mol
same,molar heat capacity at constant pressure,"442 K, Crystal 1",429.8 ± 8.6 J/K/mol
same,molar heat capacity at constant pressure,"443 K, Crystal 1",431.6 ± 8.6 J/K/mol
same,molar heat capacity at constant pressure,"444 K, Crystal 1",434 ± 8.7 J/K/mol
same,molar heat capacity at constant pressure,"445 K, Crystal 1",436.5 ± 8.7 J/K/mol
same,molar heat capacity at constant pressure,"446 K, Crystal 1",438.9 ± 8.8 J/K/mol
same,molar heat capacity at constant pressure,"447 K, Crystal 1",441.4 ± 8.8 J/K/mol
same,molar heat capacity at constant pressure,"448 K, Crystal 1",444.5 ± 8.9 J/K/mol
same,molar heat capacity at constant pressure,"449 K, Crystal 1",449.1 ± 9 J/K/mol
same,molar heat capacity at constant pressure,"450 K, Crystal 1",451.5 ± 9 J/K/mol
same,molar heat capacity at constant pressure,"451 K, Crystal 1",454.3 ± 9.1 J/K/mol
same,molar heat capacity at constant pressure,"452 K, Crystal 1",458.9 ± 9.2 J/K/mol
same,molar heat capacity at constant pressure,"453 K, Crystal 1",463.4 ± 9.3 J/K/mol
same,molar heat capacity at constant pressure,"454 K, Crystal 1",469 ± 9.4 J/K/mol
same,molar heat capacity at constant pressure,"455 K, Crystal 1",476 ± 9.5 J/K/mol
same,molar heat capacity at constant pressure,"456 K, Crystal 1",484.1 ± 9.7 J/K/mol
same,molar heat capacity at constant pressure,"457 K, Crystal 1",494.9 ± 9.9 J/K/mol
same,molar heat capacity at constant pressure,"458 K, Crystal 1",508.9 ± 10 J/K/mol and 511.7 ± 10 J/K/mol
same,molar heat capacity at constant pressure,"458.15 K, Crystal 1",511.7 ± 10 J/K/mol
same,molar heat capacity at constant pressure,"459 K, Crystal 1",532.4 ± 11 J/K/mol
same,molar heat capacity at constant pressure,"460 K, Crystal 1",561.4 ± 11 J/K/mol
